Results from patent US6479516B1, “4-arylpiperidine derivatives for the treatment of pruritus” (Pfizer Inc, priority 1999, dated 2002).

Tested on: Male Wistar rats
Experiment: Inhibition of hind leg scratching behaviour induced in rats by a pruritogenic agent (5-methoxytryptamine hydrochloride)
Format: in vivo, rat
Conditions: test compound by subcutaneous injection in aqueous micelle formulation; pruritogen 5-methoxytryptamine hydrochloride 4 mg/3 mL/kg s.c.; hindleg scratching score totalled after 25 minutes vs control group
Description: The compounds of the invention are evaluated for their activity as antipruritic agents by measuring their ability to inhibit the hind leg scratching behaviour induced in rats by the administration of a known pruritogenic agent. These studies are based on the procedure described by Berendsen and Broekkamp in the European Journal of Pharmacology, 1991, 194, 201. The test is performed as follows:
Male Wistar rats (approximately 150 g body weight) are challenged with a pruritogen by subcutaneous injection of 5-methoxytryptamine hydrochloride (4 mg/3 mL/kg) dissolved in physiological saline into the scruff of the neck. At this dose a constant and quantifiable hindleg scratching response lasting up to 90 minutes is obtained.
The test compound is administered to the test animals by subcutaneous injection in an aqueous micelle formulation. The test compound is prepared in the following manner. The compound is dissolved in a vehicle (composition v/v %: glycerol formal, 24; tween 80, 17; benzyl alcohol, 1.5 and purified water to 100) then seven parts purified water is added to three parts of the above vehicle to give the aqueous micelle formulation. […]
After the pruritogen challenge has been administered, hindleg scratching is scored for each animal by recording the presence or absence of scratching during each 30 second interval as 1 or 0 scored respectively. […]

## CCCCCCN1CC[C@@](C)(c2ccc(NC(C)=O)c(O)c2)[C@H](C)C1 (racemic) [Example 8, (±)-N-Hexyl-trans-3,4-dimethyl-4-(4-acetylamino-3-hydroxyphenyl)piperidine]
  anti-pruritic activity: display anti-pruritic activity
